Assay results taken from patent US20110172147A1, “NEUROPEPTIDE-2 RECEPTOR (Y-2R) AGONISTS” (priority 2009, published 2011).

How the values were obtained:
Assay type in all cases: cell-based
[1] = biological target: T1, hNPY2R (Homo sapiens, UniProt P49146); assay: CaFlux Assay (FLIPR), Y2R; design: expressed in transfected cells; host or cells: HEK-293 stably transfected with G protein chimera Gαqi9
T1 sequence (P49146 1-381): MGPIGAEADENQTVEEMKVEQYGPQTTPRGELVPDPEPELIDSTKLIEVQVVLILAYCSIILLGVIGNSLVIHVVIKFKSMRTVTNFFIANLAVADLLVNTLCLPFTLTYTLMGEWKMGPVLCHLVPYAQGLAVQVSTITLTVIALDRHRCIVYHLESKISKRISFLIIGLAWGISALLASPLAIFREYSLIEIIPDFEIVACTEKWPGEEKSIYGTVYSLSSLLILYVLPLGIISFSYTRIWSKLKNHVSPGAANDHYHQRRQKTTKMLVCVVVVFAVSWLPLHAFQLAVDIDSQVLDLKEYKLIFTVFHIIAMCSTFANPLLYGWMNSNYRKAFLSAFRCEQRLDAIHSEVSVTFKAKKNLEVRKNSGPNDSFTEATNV
Summary of the method: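 HEK-293 cells stably co-expressing chimeric Gαqi9 and the receptor were plated overnight at 37 °C, loaded 1 h at 37 °C with Calcium-3 dye in HBSS/20 mM HEPES/5 mM probenecid, then given compound on FLIPR. Peak fluorescence rise over 100 s, baseline-subtracted, expressed as % of positive-control maximum.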

[2] = biological target: Y4R (Homo sapiens, UniProt P50391); assay: CaFlux Assay (FLIPR), Y4R
[3] = biological target: T1, hNPY2R; assay: cAMP Agonist Assay, HEK293/hNPY2R; design: expressed in transfected cells; host or cells: HEK293/hNPY2R (G418 selection)
Summary of the method: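 Intracellular cAMP quantified by luminescent competitive ELISA after a 30 min room-temperature treatment of overnight-plated HEK293/hNPY2R cells with compound in medium containing 5 μM forskolin, 0.5 mM IBMX and 1.1% DMSO; four replicates per concentration.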

[4] = biological target: T2, Y5R (Homo sapiens, UniProt Q15761); assay: CaFlux Assay (FLIPR), Y5R
T2 sequence (Q15761 1-445): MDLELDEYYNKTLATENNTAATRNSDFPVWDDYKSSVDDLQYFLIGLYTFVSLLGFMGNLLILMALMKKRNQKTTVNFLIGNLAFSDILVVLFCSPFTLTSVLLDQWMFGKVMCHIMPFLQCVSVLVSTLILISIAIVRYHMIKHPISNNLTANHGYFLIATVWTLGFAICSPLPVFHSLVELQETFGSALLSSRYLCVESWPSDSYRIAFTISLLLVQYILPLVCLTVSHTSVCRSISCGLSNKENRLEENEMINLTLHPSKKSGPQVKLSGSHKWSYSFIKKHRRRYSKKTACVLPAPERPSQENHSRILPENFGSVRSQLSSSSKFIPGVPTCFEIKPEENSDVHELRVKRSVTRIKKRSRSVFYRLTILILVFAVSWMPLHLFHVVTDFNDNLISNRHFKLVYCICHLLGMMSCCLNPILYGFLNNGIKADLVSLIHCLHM

[5] = biological target: T3, Y1R (Homo sapiens, UniProt P25929); assay: CaFlux Assay (FLIPR), Y1R
T3 sequence (P25929 1-384): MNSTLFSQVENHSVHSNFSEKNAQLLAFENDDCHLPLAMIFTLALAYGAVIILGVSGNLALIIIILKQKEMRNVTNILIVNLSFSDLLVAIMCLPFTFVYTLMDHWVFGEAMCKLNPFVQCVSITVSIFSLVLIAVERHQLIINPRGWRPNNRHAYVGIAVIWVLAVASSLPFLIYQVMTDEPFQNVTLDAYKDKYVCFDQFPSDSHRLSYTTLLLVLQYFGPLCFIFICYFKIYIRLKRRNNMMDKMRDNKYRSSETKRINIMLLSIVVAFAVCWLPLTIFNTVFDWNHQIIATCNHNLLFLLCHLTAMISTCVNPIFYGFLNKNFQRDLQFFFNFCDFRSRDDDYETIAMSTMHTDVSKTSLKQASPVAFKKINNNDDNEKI

Sequence of Y4R (P50391 whole entry): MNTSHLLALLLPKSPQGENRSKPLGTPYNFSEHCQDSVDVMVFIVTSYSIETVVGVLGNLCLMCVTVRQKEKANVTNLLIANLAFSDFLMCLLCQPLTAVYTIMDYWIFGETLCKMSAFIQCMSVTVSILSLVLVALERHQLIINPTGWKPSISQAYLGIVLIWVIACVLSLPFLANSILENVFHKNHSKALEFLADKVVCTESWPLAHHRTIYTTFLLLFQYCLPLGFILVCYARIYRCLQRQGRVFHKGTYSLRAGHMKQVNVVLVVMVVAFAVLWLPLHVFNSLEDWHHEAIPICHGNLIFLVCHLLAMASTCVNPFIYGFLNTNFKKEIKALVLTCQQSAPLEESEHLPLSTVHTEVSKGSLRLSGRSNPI

For CCCCCCCCCCCCCCCCCCCC(=O)NCCCCCC(=O)N[C@H](C(=O)N[C@@H](CCCCNC(=O)CCOCCOCCOCCOCCOCCOCCOCCOCCOCCOCCOCCOCCOCCOCCOCCOCCOCCOCCOCCOCCOCCOCCOCCOC)C(=O)N1CCN(c2ccc3ncn(CC(=O)N[C@@H](CCCNC(N)=O)C(=O)N[C@@H](Cc4c[nH]cn4)C(=O)N[C@@H](Cc4ccc(O)cc4)C(=O)N[C@@H](CC(C)C)C(=O)N[C@@H](CC(N)=O)C(=O)N[C@@H](Cc4c[nH]c5ccccc45)C(=O)N[C@H](C(=O)N[C@H](C(=O)N[C@@H](CCCNC(=N)N)C(=O)N[C@@H](CCC(N)=O)C(=O)N(C)[C@@H](CCCNC(=N)N)C(=O)N[C@@H](Cc4ccc(O)cc4)C(N)=O)[C@@H](C)O)C(C)C)c(=O)c3c2)CC1)[C@@H](C)CC [Example 33], the EC50 [1] was 0.127 nM, the EC50 [2] was greater than 6000 nM and the EC50 [3] was 0.13 nM. The EC50 [4] was 4290 nM and the EC50 [5] was greater than 6000 nM.

CCCCCCCCCCCCCCCC(=O)NCCCCCC(=O)N[C@H](C(=O)N[C@@H](CCCCNC(=O)CCOCCOCCOCCOCCOCCOCCOCCOCCOCCOCCOCCOCCOCCOCCOCCOCCOCCOCCOCCOCCOCCOCCOCCOC)C(=O)N1CCN(c2ccc3ncn(CC(=O)N[C@@H](CCCNC(=N)N)C(=O)N[C@@H](Cc4c[nH]cn4)C(=O)N[C@@H](Cc4ccc(O)cc4)C(=O)N[C@@H](CC(C)C)C(=O)N[C@@H](CC(N)=O)C(=O)N[C@@H](Cc4c[nH]c5ccccc45)C(=O)N[C@H](C(=O)N[C@H](C(=O)N[C@@H](CCCNC(=N)N)C(=O)N[C@@H](CCC(N)=O)C(=O)N(C)[C@@H](CCCNC(=N)N)C(=O)N[C@@H](Cc4ccc(O)cc4)C(N)=O)[C@@H](C)O)C(C)C)c(=O)c3c2)CC1)[C@@H](C)CC [Example 34] showed an EC50 [1] of 0.068 nM, an EC50 [2] greater than 5000 nM and an EC50 [3] of 0.18 nM. For the same compound, the EC50 [4] was 988 nM and the EC50 [5] was greater than 5000 nM.

Compound CCCCCCCCCCCC(=O)NCCCCCC(=O)N[C@H](C(=O)N[C@@H](CCCCNC(=O)CCOCCOCCOCCOCCOCCOCCOCCOCCOCCOCCOCCOCCOCCOCCOCCOCCOCCOCCOCCOCCOCCOCCOCCOC)C(=O)N1CCN(c2ccc3ncn(CC(=O)N[C@@H](CCCNC(N)=O)C(=O)N[C@@H](Cc4c[nH]cn4)C(=O)N[C@@H](Cc4ccc(O)cc4)C(=O)N[C@@H](CC(C)C)C(=O)N[C@@H](CC(N)=O)C(=O)N[C@@H](Cc4c[nH]c5ccccc45)C(=O)N[C@H](C(=O)N[C@H](C(=O)N[C@@H](CCCNC(=N)N)C(=O)N[C@@H](CCC(N)=O)C(=O)N(C)[C@@H](CCCNC(=N)N)C(=O)N[C@@H](Cc4ccc(O)cc4)C(N)=O)[C@@H](C)O)C(C)C)c(=O)c3c2)CC1)[C@@H](C)CC [Example 36] has an EC50 [1] of 0.388 nM, an EC50 [2] greater than 6000 nM and an EC50 [3] of 12.7 nM. It also gave an EC50 [4] greater than 6000 nM and an EC50 [5] greater than 6000 nM.

CCCCCCCCCCCCCC(=O)NCCCCCC(=O)N[C@H](C(=O)N[C@@H](CCCCNC(=O)CCOCCOCCOCCOCCOCCOCCOCCOCCOCCOCCOCCOCCOCCOCCOCCOCCOCCOCCOCCOCCOCCOCCOCCOC)C(=O)N1CCN(c2ccc3ncn(CC(=O)N[C@@H](CCCNC(N)=O)C(=O)N[C@@H](Cc4c[nH]cn4)C(=O)N[C@@H](Cc4ccc(O)cc4)C(=O)N[C@@H](CC(C)C)C(=O)N[C@@H](CC(N)=O)C(=O)N[C@@H](Cc4c[nH]c5ccccc45)C(=O)N[C@H](C(=O)N[C@H](C(=O)N[C@@H](CCCNC(=N)N)C(=O)N[C@@H](CCC(N)=O)C(=O)N(C)[C@@H](CCCNC(=N)N)C(=O)N[C@@H](Cc4ccc(O)cc4)C(N)=O)[C@@H](C)O)C(C)C)c(=O)c3c2)CC1)[C@@H](C)CC [Example 37] showed an EC50 [1] of 0.158 nM, an EC50 [2] greater than 6000 nM and an EC50 [3] of 2.8 nM. For the same compound, the EC50 [4] was 4260 nM and the EC50 [5] was greater than 6000 nM.

For CCCCCCCCCCCCCCCC(=O)NCCCCCC(=O)NCCOCCOCCOCCOCCOCCOCCOCCOCCOCCOCCOCCOCCOCCOCCOCCOCCOCCOCCOCCOCCOCCOCCOCCOCCC(=O)N[C@H](C(=O)N[C@@H](CCCCN)C(=O)N1CCN(c2ccc3ncn(CC(=O)N[C@@H](CCCNC(=N)N)C(=O)N[C@@H](Cc4c[nH]cn4)C(=O)N[C@@H](Cc4ccc(O)cc4)C(=O)N[C@@H](CC(C)C)C(=O)N[C@@H](CC(N)=O)C(=O)N[C@@H](Cc4c[nH]c5ccccc45)C(=O)N[C@H](C(=O)N[C@H](C(=O)N[C@@H](CCCNC(=N)N)C(=O)N[C@@H](CCC(N)=O)C(=O)N(C)[C@@H](CCCNC(=N)N)C(=O)N[C@@H](Cc4ccc(O)cc4)C(N)=O)[C@@H](C)O)C(C)C)c(=O)c3c2)CC1)[C@@H](C)CC [Example 38], the EC50 [1] was 0.1 nM, the EC50 [2] was greater than 6000 nM and the EC50 [3] was 0.07 nM. For the same compound, the EC50 [4] was 1380 nM and the EC50 [5] was greater than 6000 nM.

CCCCCCCCCCCCCCCC(=O)NCCCCCC(=O)NCCOCCOCCOCCOCCOCCOCCOCCOCCOCCOCCOCCOCCOCCOCCOCCOCCOCCOCCOCCOCCOCCOCCOCCOCCC(=O)NCCCC[C@H](NC(=O)[C@@H](NC(C)=O)[C@@H](C)CC)C(=O)N1CCN(c2ccc3ncn(CC(=O)N[C@@H](CCCNC(=N)N)C(=O)N[C@@H](Cc4c[nH]cn4)C(=O)N[C@@H](Cc4ccc(O)cc4)C(=O)N[C@@H](CC(C)C)C(=O)N[C@@H](CC(N)=O)C(=O)N[C@@H](Cc4c[nH]c5ccccc45)C(=O)N[C@H](C(=O)N[C@H](C(=O)N[C@@H](CCCNC(=N)N)C(=O)N[C@@H](CCC(N)=O)C(=O)N(C)[C@@H](CCCNC(=N)N)C(=O)N[C@@H](Cc4ccc(O)cc4)C(N)=O)[C@@H](C)O)C(C)C)c(=O)c3c2)CC1 [Example 39] was tested, and the EC50 [1] was 0.038 nM, the EC50 [2] was greater than 6000 nM and the EC50 [3] was 0.07 nM. The EC50 [4] was 1950 nM and the EC50 [5] was greater than 6000 nM.

CCCCCCCCCCCCCCCC(=O)NCCCCCC(=O)NCCCCCC(=O)N[C@H](C(=O)N[C@@H](CCCCNC(=O)CCOCCOCCOCCOCCOCCOCCOCCOCCOCCOCCOCCOC)C(=O)N1CCN(c2ccc3ncn(CC(=O)N[C@@H](CCCNC(=N)N)C(=O)N[C@@H](Cc4c[nH]cn4)C(=O)N[C@@H](Cc4ccc(O)cc4)C(=O)N[C@@H](CC(C)C)C(=O)N[C@@H](CC(N)=O)C(=O)N[C@@H](Cc4c[nH]c5ccccc45)C(=O)N[C@H](C(=O)N[C@H](C(=O)N[C@@H](CCCNC(=N)N)C(=O)N[C@@H](CCC(N)=O)C(=O)N(C)[C@@H](CCCNC(=N)N)C(=O)N[C@@H](Cc4ccc(O)cc4)C(N)=O)[C@@H](C)O)C(C)C)c(=O)c3c2)CC1)[C@@H](C)CC [Example 40] was tested, and the EC50 [1] was 0.058 nM, the EC50 [2] was greater than 6000 nM and the EC50 [3] was 0.11 nM. For the same compound, the EC50 [4] was 820 nM and the EC50 [5] was greater than 6000 nM.

In the case of CCCCCCCCCCCCCCCC(=O)NCCCCCC(=O)NCCCCCC(=O)N[C@H](C(=O)N[C@@H](CCCCNC(=O)CCOCCOCCOCCOCCOCCOCCOCCOCCOCCOCCOCCOCCOCCOCCOCCOC)C(=O)N1CCN(c2ccc3ncn(CC(=O)N[C@@H](CCCNC(=N)N)C(=O)N[C@@H](Cc4c[nH]cn4)C(=O)N[C@@H](Cc4ccc(O)cc4)C(=O)N[C@@H](CC(C)C)C(=O)N[C@@H](CC(N)=O)C(=O)N[C@@H](Cc4c[nH]c5ccccc45)C(=O)N[C@H](C(=O)N[C@H](C(=O)N[C@@H](CCCNC(=N)N)C(=O)N[C@@H](CCC(N)=O)C(=O)N(C)[C@@H](CCCNC(=N)N)C(=O)N[C@@H](Cc4ccc(O)cc4)C(N)=O)[C@@H](C)O)C(C)C)c(=O)c3c2)CC1)[C@@H](C)CC [Example 41], the EC50 [1] is reported as 0.04 nM, the EC50 [2] is reported as greater than 6000 nM and the EC50 [3] is reported as 0.17 nM. The EC50 [4] was 1320 nM and the EC50 [5] was greater than 6000 nM.
